Test results: PMC9247345 (Journal of medicinal chemistry, 2011)
Where two headings read alike, the source gives them in different places. Blank lines part the entries; values can stand above or below the compound they belong to.

Key:
[1] = system: P. falciparum W2 (chloroquine and pyrimethamine resistant); assay: in vitro antimalarial activity against W2; format: cell-based; settings: for EC50: Plasmodium falciparum; for fold decrease in antimalarial activity: W2, compared to compound 5; for times less active against W2: in comparison to reference compound 17; for antimalarial activity in words: W2
[2] = system: P. berghei; settings: rodent malaria models; cited from earlier work
[3] = system: P. falciparum TM90-C2B (chloroquine, mefloquine, pyrimethamine and atovaquone resistant); assay: in vitro antimalarial activity against TM90-C2B; format: cell-based; settings: for fold decrease in antimalarial activity / antimalarial activity in words: TM90-C2B; for fold decrease in antimalarial activity: compared to compound 5; for fold more potent against TM90-C2B: compared to compound 27; for EC50: Plasmodium falciparum

EC50 ([1]; W2, read-out: EC50 W2, Table 1, PEQ analogs): 0.53 nM
EC50 ([1]; W2, read-out: EC50 W2, Table 2, 3-aryl PEQs): 0.53 nM
SMILES: O=C1C(O)=C([C@H]2CC[C@H](c3ccc(Cl)cc3)CC2)C(=O)c2ccccc21 [ATO, atovaquone, reference compound]

SMILES: CCCCc1cc2c(=O)c(C(=O)OC)c[nH]c2cc1OCCOc1ccccc1 [Compound 5, reference compound]
fold stronger inhibition of W2 than TM90-C2B ([1]; W2 versus TM90-C2B): approximately 220 fold
ED50, causal prophylactic and blood schizonticidal activity [2]: 0.05 mg/kg

SMILES: COC(=O)c1c[nH]c2cc(OC)c(Cl)cc2c1=O [Compound 14]
fold decrease in antimalarial activity [1]: ≥ 70 fold
fold decrease in antimalarial activity [3]: ≥ 70 fold

SMILES: CCCCc1cc2c(=O)cc(C)[nH]c2cc1OCCOc1ccccc1 [Compound 15]
fold decrease in antimalarial activity [1]: 4000 fold
fold decrease in antimalarial activity [3]: 4 fold

SMILES: CCc1c(C)[nH]c2cc(OCCOc3ccccc3)c(C)cc2c1=O [Compound 18]
fold more potent against TM90-C2B [3]: approximately 3 fold

SMILES: CCc1c(C)[nH]c2cc(OCCOc3ccccc3)c(OC)cc2c1=O [Compound 19]
fold more potent against TM90-C2B [3]: approximately 3 fold

SMILES: CCc1c(C)[nH]c2cc(OCOC)c(Cl)cc2c1=O [Compound 20]
times less active against W2 [1]: approximately four-fold less active

SMILES: CCc1c(C)[nH]c2cc(OCCCN3CCN(c4ccccc4)CC3)c(Cl)cc2c1=O [Compound 26]
times less active against W2 [1]: approximately four-fold less active

SMILES: CCCCc1cc2c(=O)c(-c3ccncc3)c(C)[nH]c2cc1OCCOc1ccccc1 [Compound 32]
antimalarial activity in words [1]: moderate activity in low μM or high nM range
antimalarial activity in words [3]: moderate activity in low μM or high nM range

SMILES: CCCCc1cc2c(=O)c(-c3cccnc3)c(C)[nH]c2cc1OCCOc1ccccc1 [Compound 33]
antimalarial activity in words [1]: moderate activity in low μM or high nM range
antimalarial activity in words [3]: moderate activity in low μM or high nM range

SMILES: CCCCc1cc2c(=O)c(-c3c(C)noc3C)c(C)[nH]c2cc1OCCOc1ccccc1 [Compound 43]
antimalarial activity in words [3]: approximately five times less potent

SMILES: C[C@H]1[C@@H](O)O[C@@H]2O[C@@]3(C)CC[C@H]4[C@H](C)CC[C@@H]1[C@@]24OO3 [DHA, Dihydroartemisinin, reference compound]
EC50 ([1]; W2, read-out: EC50 W2): 1.8 nM
EC50 ([3]; TM90, read-out: EC50 TM90-C2B, Table 1, PEQ analogs): 0.9 nM
EC50 ([3]; TM90, read-out: EC50 TM90-C2B, Table 2, 3-aryl PEQs): 0.9 nM
